Reference: PubChem BioAssay (NCI)
Where “and” joins values, the source holds several entries; their conditions need not be identical. Identical values can stand only once.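 The compound was tested at five concentrations on cells cultured in 96-well plates, with a 48-hour exposure period. Abbreviation: GI50, concentration required for 50% inhibition of growth. TGI is the concentration that stops growth completely.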

What was measured:
Assay in all cases: NCI-60 cell line screen, 48 h
HT29 colon = test system: HT29 colon
SK-MEL-5 melanoma = test system: SK-MEL-5 melanoma
A549 NSCLC = test system: A549 NSCLC
OVCAR-3 ovarian = test system: OVCAR-3 ovarian
TK-10 renal = test system: TK-10 renal
HS 578T breast = test system: HS 578T breast
BT-549 breast = test system: BT-549 breast
HOP-62 NSCLC = test system: HOP-62 NSCLC

Structure (SMILES)	GI50 (HT29 colon)	TGI (HT29 colon)	GI50 (SK-MEL-5 melanoma)	TGI (SK-MEL-5 melanoma)	GI50 (A549 NSCLC)	TGI (A549 NSCLC)	GI50 (OVCAR-3 ovarian)	TGI (OVCAR-3 ovarian)	GI50 (TK-10 renal)	TGI (TK-10 renal)	GI50 (HS 578T breast)	TGI (HS 578T breast)	GI50 (BT-549 breast)	GI50 (HOP-62 NSCLC)	TGI (HOP-62 NSCLC)	TGI (BT-549 breast)
O=C1Nc2ccccc2/C1=C/C(=O)c1coc2c1C(=O)c1ccccc1C2=O	> 100 µM	> 100 µM	30.4 µM	> 100 µM	> 100 µM	> 100 µM	> 100 µM	> 100 µM	> 100 µM	> 100 µM	> 100 µM	> 100 µM				
COc1ccc(C(=O)c2cc(OC)c(OC)c(OC)c2)cc1OC(=O)CCl	1.94 µM	> 100 µM	0.0338 µM	0.434 µM	0.164 µM	> 100 µM	0.0287 µM		19.4 µM	> 100 µM	0.0281 µM	> 100 µM	< 0.0192 µM	0.224 µM	> 100 µM	
Nc1c(C(=O)c2cccc(-c3ccncc3)c2)cnn1-c1ccc(F)cc1F	2.48 µM	> 25 µM	1.68 µM	8.49 µM	6.01 µM	> 25 µM	9.08 µM	> 25 µM	> 15 µM	> 25 µM	> 25 µM	> 25 µM	11.1 µM	9.3 µM	> 25 µM	> 25 µM
COC(=O)c1nc(-c2ccccc2)oc1S(=O)(=O)Cc1ccccc1	2.44 µM	5.79 µM			17.5 µM	33.6 µM	1.94 µM	3.52 µM	1.74 µM	3.19 µM	19.2 µM	60.1 µM	6.5 µM	26.8 µM	> 100 µM	19.1 µM
COc1cnc2c(c1)C(=O)c1c-2n(CCCn2ccnc2)c(=O)c2cc(F)ccc12	0.013 µM	0.226 µM	0.0169 µM	0.0717 µM	0.0209 µM	1.5 µM	0.0437 µM	0.382 µM			0.504 µM	> 100 µM	0.0688 µM	< 0.01 µM	0.176 µM	2.86 µM
C#Cc1c(F)ccc2cc(O)cc(-c3ncc4c(N5CC6CCC(C5)N6)nc(OC[C@@]56CCCN5C[C@H](F)C6)nc4c3F)c12	9.99 µM	31 µM	14.9 µM	28.2 µM	10.9 µM	45.2 µM	12.7 µM	25.9 µM	21.8 µM	> 55.5 µM	8.47 µM	28.2 µM	8.22 µM	2.18 µM	22.4 µM	22.8 µM
C[C@H]1[C@H](C)CC[C@]2(CO)CC[C@]3(C)C(=CC[C@@H]4[C@@]5(C)CCCNC(C)(C)[C@@H]5CC[C@]43C)[C@H]12	0.628 µM	1.97 µM	1.7 µM	3.09 µM	1.74 µM	3.28 µM	1.83 µM	3.42 µM	1.84 µM	3.32 µM	2.05 µM	4.86 µM		1.81 µM	3.43 µM	
Cc1ccc(S(=O)(=O)N/N=C/c2c(O)ccc3ccccc23)cc1		> 100 µM		> 100 µM		> 100 µM		44.2 µM		> 100 µM		46.8 µM			> 100 µM	59.6 µM
COc1ccc(-c2nc(-c3nc4ccc(OC)cc4[nH]3)c3ccccn23)cc1	3.75 µM	> 100 µM	1.6 µM	4.41 µM	3.17 µM	46.7 µM	4.97 µM	62.1 µM	2.65 µM	25.6 µM	2.57 µM	7.15 µM	3.2 µM	5.07 µM	> 100 µM	8.86 µM
COc1cc(C(=O)O[C@H](C(=O)NCCCCCNC(=O)[C@@H](OC(=O)c2cc(OC)cc3c(C)cccc23)[C@]2(C)CO2)[C@]2(C)CO2)c2cccc(C)c2c1	0.182 µM	> 100 µM	0.166 µM	0.501 µM	0.447 µM	10.2 µM	1.61 µM	10.6 µM	0.661 µM	2.37 µM	0.943 µM	6.51 µM	1.13 µM	< 0.01 µM	0.157 µM	5.8 µM
CCN(CC)CCCC(C)Nc1ccnc2cc(Oc3ccccc3)ccc12 (configuration not stated)	0.627 µM and 1.12 µM	8.37 µM and 12 µM	1.69 µM and 1.8 µM	3.22 µM and 3.37 µM	4.13 µM and 14.2 µM	14.8 µM and 47.6 µM	13.7 µM and 22 µM	34.2 µM and > 100 µM	2.58 µM and 3.23 µM	8.34 µM and 10.3 µM	5.5 µM and 16.7 µM	24.3 µM and 56.5 µM	7.77 µM and 14.9 µM	7.45 µM and 11.5 µM	21.7 µM and 37.4 µM	21.3 µM and 30.4 µM
N#CC(NC12CC3CC(CC(C3)C1)C2)c1ccc2c(c1)OCO2 (configuration not stated)		> 100 µM		> 100 µM		> 100 µM		> 100 µM		> 100 µM		> 100 µM			> 100 µM	> 100 µM
COc1ccc(/C(COc2ccc3c(=O)cc(-c4ccccc4)oc3c2)=N\O)cc1	25.6 µM	> 50 µM	9.61 µM	> 29.4 µM	20.1 µM	> 50 µM	10.3 µM	38.7 µM	10.7 µM	28.1 µM			12.9 µM	26.1 µM	> 50 µM	25.8 µM
COc1ccc(-c2cn(-c3cc(OC)c(OC)c(OC)c3)c(SCc3ccccc3)n2)cc1OC	> 100 µM	> 100 µM	68.2 µM	> 100 µM	> 100 µM	> 100 µM	> 100 µM	> 100 µM	> 100 µM	> 100 µM	> 100 µM	> 100 µM	> 100 µM	> 100 µM	> 100 µM	> 100 µM
COc1cc([N+](=O)[O-])c(OC)cc1-c1nc2sc(Cl)cn2c1/C(N)=N/C(=N)N	3.02 µM	> 100 µM	4.52 µM	29.5 µM	18.4 µM	> 53 µM	1.72 µM	3.45 µM	7.31 µM	24.3 µM	2.72 µM	6.8 µM	11.4 µM	6.32 µM	17.3 µM	47.5 µM
COc1cc(NC(C)CCCNC2CN3CCC2CC3)c2ncccc2c1 (configuration not stated)	3.7 µM	14 µM	2.23 µM	5.6 µM	12.9 µM	27.5 µM	3.22 µM	11.4 µM	16.6 µM	31 µM	14.8 µM	39.6 µM	14.8 µM	11.9 µM	24.8 µM	29.3 µM
C(#Cc1ccccc1C#Cc1cccs1)c1cccs1	23.5 µM	> 100 µM	23.6 µM	> 100 µM	89.9 µM	> 100 µM	57.1 µM	> 100 µM	27.7 µM	> 100 µM			> 100 µM	77.3 µM	> 100 µM	> 100 µM

Structure (SMILES)	GI50 (HT29 colon)	TGI (HT29 colon)	GI50 (SK-MEL-5 melanoma)	TGI (SK-MEL-5 melanoma)	GI50 (A549 NSCLC)	TGI (A549 NSCLC)	GI50 (OVCAR-3 ovarian)	TGI (OVCAR-3 ovarian)	GI50 (TK-10 renal)	TGI (TK-10 renal)	GI50 (HS 578T breast)	TGI (HS 578T breast)	GI50 (BT-549 breast)	GI50 (HOP-62 NSCLC)	TGI (HOP-62 NSCLC)	TGI (BT-549 breast)
COc1cc2ccc(/C=C\[N+](=O)[O-])cc2cc1OC		4 µM		17.5 µM		29.8 µM		18.1 µM		9.01 µM		37.8 µM			16.1 µM	5.74 µM
Cc1nn2c(/C=C3\C(=O)Nc4ccc(Cl)cc43)c(C)nc2s1	5.16 µM	> 100 µM	10.1 µM	> 100 µM	93.9 µM	> 100 µM	23.3 µM	> 100 µM	> 100 µM	> 100 µM	61.8 µM	> 100 µM	63.2 µM	61.1 µM	> 100 µM	> 100 µM
COc1ccc(C(=O)OC2C(OC3C(O)COC(O[C@H]4C[C@H]5[C@@H]6CC=C7C[C@@H](O)CC[C@]7(C)[C@H]6CC[C@]5(C)[C@H]4[C@H](C)C(=O)CCC(C)C)C3OC(N)=O)OCC(O)C2O)cc1 (some centres not stated)	0.0737 µM	4.27 µM	0.114 µM	0.615 µM	0.0773 µM	4.75 µM	0.755 µM	5.75 µM	1.04 µM	5.23 µM	< 0.003 µM	0.37 µM	< 0.003 µM	0.0247 µM	1.7 µM	3.71 µM
CC/C=C1/C(=O)C=C[C@@H]1C/C=C\CCCC(=O)OC	2.25 µM	5.3 µM	1.77 µM	3.2 µM	13.3 µM	29.5 µM	3.05 µM	10.2 µM	4.07 µM	14.5 µM			2.84 µM	3.39 µM	11.9 µM	8.15 µM
C=C1C(=O)O[C@H]2[C@H]1CC/C(COC(=O)NCc1ccc(Cn3c(=O)sn(CCCl)c3=O)cc1)=C\CC[C@@]1(C)O[C@@H]21	2.16 µM	4.77 µM	1.7 µM	3.24 µM	14.2 µM	29.1 µM	1.53 µM	2.88 µM	1.77 µM	3.43 µM	12.1 µM	55.9 µM	1.45 µM	16.3 µM	31.5 µM	2.78 µM
COc1cc2c(cc1C)NC(=O)/C2=C/c1ccccn1	5.47 µM	> 100 µM	4.49 µM	27.3 µM	4.11 µM	> 100 µM	2.61 µM	6.81 µM						4.24 µM	> 100 µM	
CC(C)[C@H](N)C(=O)N1CCC[C@H]1B(O)O	> 100 µM	> 100 µM	> 100 µM	> 100 µM	> 100 µM	> 100 µM	> 100 µM	> 100 µM	> 100 µM	> 100 µM	> 100 µM	> 100 µM	> 100 µM	> 100 µM	> 100 µM	> 100 µM
COc1cc(CSc2nc3ccc(C)cc3c(=O)n2-c2ccccc2)cc(OC)c1OC	0.759 µM	> 100 µM	0.435 µM	19.9 µM	1.59 µM	> 100 µM	1.95 µM	> 27.3 µM	8.1 µM	> 100 µM	2.16 µM	> 100 µM	5.28 µM	2.48 µM	> 100 µM	> 100 µM
Cc1ccc(Nc2n[nH]c(=S)s2)cc1C		> 100 µM		> 100 µM		> 100 µM		> 100 µM		> 100 µM		> 100 µM			> 100 µM	> 100 µM
COc1ccc2c(c1)c(=O)oc1cc(OC/C(C)=N\O)ccc12	> 100 µM	> 100 µM	> 100 µM	> 100 µM	> 100 µM	> 100 µM	> 100 µM	> 100 µM	44.8 µM	> 100 µM	27.6 µM	> 100 µM	49.2 µM	28.7 µM	> 100 µM	> 100 µM
CC(C)(C)n1cc(-c2ccnc(NCCCNS(=O)(=O)c3ccc(C(F)(F)F)cc3)c2)c(-c2cccc(O)c2)n1			1.6 µM	2.97 µM	2.02 µM	4.58 µM	1.96 µM	3.84 µM	2.31 µM	5.28 µM	1.98 µM	4.84 µM	1.61 µM	1.93 µM	3.85 µM	3.05 µM
O=[N+]([O-])O.[Cu+2].[NH-]CC[NH-].[NH-]CC[NH-]	> 10 µM	> 10 µM	> 10 µM	> 10 µM	> 10 µM	> 10 µM	> 10 µM	> 10 µM			> 10 µM	> 10 µM	> 10 µM	> 10 µM	> 10 µM	> 10 µM
CCC(C)(CC(C)(C)C(=O)NCC(=O)NC(Cc1ccccc1)C(=O)NC(Cc1ccccc1)C(=O)NCC(=O)NC1CC(OC2CC(O)(C(=O)CO)Cc3c(O)c4c(c(O)c32)C(=O)c2c(OC)cccc2C4=O)OC(C)C1O)C(=O)NCC(C)O (configuration not stated)	91.9 µg/mL	> 150 µg/mL	28.8 µg/mL	148 µg/mL			> 150 µg/mL	> 150 µg/mL	> 150 µg/mL	> 150 µg/mL	> 150 µg/mL	> 150 µg/mL		63.7 µg/mL	> 150 µg/mL	
COc1ccc(C2=CC(c3ccc4c(c3)OCO4)c3c(c4ccccc4oc3=O)O2)cc1OC (configuration not stated)		> 100 µM		> 100 µM		> 100 µM				> 100 µM		> 25.6 µM			> 100 µM	> 100 µM
O=C(O)CNC(=O)c1ccc(-c2ccccc2)cc1				> 100 µM		> 100 µM		> 100 µM		> 100 µM		> 100 µM			> 100 µM	
CN(CCCn1c2c(c3ccccc3c1=O)C(=O)c1ccccc1-2)CCCn1c2c(c3ccccc3c1=O)C(=O)c1ccccc1-2			6.57 µM	> 100 µM	1.13 µM	4.21 µM					2.67 µM	> 100 µM	22 µM			83.1 µM
